Measurements taken from US20260022143A1, “Cyclic Peptide Inhibitors of IL-23” (JANSSEN PHARMACEUTICA NV, priority 2022, published 2026).
pIC50: −log10 of the molar value. Starred links: 1 amine or outer side, 2 acyl side, 3 side chain; linkers in the order of their positions; H or OH if unused. Positions of bridges follow the written chain, without caps; N, C: chain ends. Non-standard residues stand in square brackets, D forms with d. Residues, ends and D or L forms follow the SMILES beside them. ξ: configuration not given here. *: point of attachment. Trp(7-(3-AcNH-Ph)) = CC(=O)Nc1cccc(-c2cccc3c(C[C@H](N)C(=O)O)c[nH]c23)c1; X51 = C[N+](C)(C)CCCc1cn(-c2ccc(C[C@H](N[*:1])C(=O)[*:2])cc2)nn1; Me3N+(CH2)2O(CH2)2O(CH2)2CO = C[N+](C)(C)CCOCCOCCC(=O)*; CH2CH2OCH2CH2OCH2CH2NMe3+ = C[N+](C)(C)CCOCCOCC*; NH(CH2CH2O)2CH2CH2NMe3+ = C[N+](C)(C)CCOCCOCCN*; Trp(7-Me) = Cc1cccc2c(C[C@H](N)C(=O)O)c[nH]c12; Hexanoyl(6-NMe3+) = C[N+](C)(C)CCCCCC(=O)*; X20 = C[N+](C)(C)CC[C@H](N[*:1])C(=O)[*:2]; dLys(Me3) = C[N+](C)(C)CCCC[C@@H](N)C(=O)O; 2Nal = N[C@@H](Cc1ccc2ccccc2c1)C(=O)O; AEF = NCCOc1ccc(C[C@H](N)C(=O)O)cc1; 3Pal = N[C@@H](Cc1cccnc1)C(=O)O; Lys(Me) = CNCCCC[C@H](N)C(=O)O; Pen = CC(C)(S)[C@H](N)C(=O)O; ξLys(Me) = CNCCCCC(N)C(=O)O; X37 = C[N+]1(C)CCN(CC*)CC1; Thp = NC1(C(=O)O)CCOCC1; X3 = C[N+](C)(C)CCCCC*; Sar = CNCC(=O)O

Columns and labels:
IL-23R = target: T1, IL-23R (Homo sapiens, UniProt Q5VWK5); assay: IL23R Reporter Assay; assay type: cell-based; conditions: HEK293 cells containing IL-23R, IL-12RP1 and STAT-inducible firefly luciferase reporter; 10 ng/mL IL-23 (EC90); 5 h at 37° C.; read-out: IL23R Reporter Assay
T1 construct: host or cells: HEK293
T1 sequence (Q5VWK5 24-629): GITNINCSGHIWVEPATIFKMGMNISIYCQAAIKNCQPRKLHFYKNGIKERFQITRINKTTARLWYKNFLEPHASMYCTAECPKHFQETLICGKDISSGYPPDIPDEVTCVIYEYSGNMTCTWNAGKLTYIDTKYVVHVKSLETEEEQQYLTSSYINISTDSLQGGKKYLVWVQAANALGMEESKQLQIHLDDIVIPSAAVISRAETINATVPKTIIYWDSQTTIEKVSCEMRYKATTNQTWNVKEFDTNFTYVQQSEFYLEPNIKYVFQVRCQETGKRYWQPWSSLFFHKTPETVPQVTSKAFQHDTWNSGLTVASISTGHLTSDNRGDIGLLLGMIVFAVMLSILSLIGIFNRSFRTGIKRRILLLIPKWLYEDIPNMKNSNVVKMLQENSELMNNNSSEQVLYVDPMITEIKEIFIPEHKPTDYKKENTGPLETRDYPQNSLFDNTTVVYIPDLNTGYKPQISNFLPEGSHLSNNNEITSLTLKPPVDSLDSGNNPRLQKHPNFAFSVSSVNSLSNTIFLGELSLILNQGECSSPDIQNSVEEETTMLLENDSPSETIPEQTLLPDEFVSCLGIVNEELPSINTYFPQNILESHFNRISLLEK

[1] = Exposed Polar Surface Area (EPSA); assay type: physicochemical; conditions: SFC on Chirex 3014 column; sample 1 mM DMSO stock; read-out: EPSA
Summary of the method: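 Compounds, as 1 mM DMSO stock, were injected in duplicate onto an SFC Chirex 3014 column at 35 °C and eluted with a CO2/methanol (20 mM ammonium formate) gradient. EPSA values in Å^2 were derived from retention times using a linear fit to eight calibration standards, reinjected every 20 compounds.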

Compound	pIC50 (IL-23R)	EPSA [1] [A^2]
CC(=O)N(C)CCCC[C@@H]1NC(=O)[C@H](Cc2c[nH]c3c(C)cccc23)NC(=O)[C@H]([C@@H](C)O)NC(=O)[C@H](CC[N+](C)(C)C)NC(=O)[C@@H](NC(=O)CCOCCOCC[N+](C)(C)C)C(C)(C)SSC(C)(C)[C@@H](C(=O)N[C@@H](Cc2ccc(OCCOCCOCC[N+](C)(C)C)cc2)C(=O)N[C@@H](Cc2ccc3ccccc3c2)C(=O)NC2(C(=O)N[C@@H](CCCCN(C)C(C)=O)C(=O)N[C@@H](CC(N)=O)C(=O)N[C@@H](Cc3cccnc3)C(=O)N(C)CC(=O)N(C)C)CCOCC2)NC1=O [compound 416, cPEG3aCO-Pen(3)-Dab(Me)3-T-7MeW-K(NMeAc)-Pen(3)-APEG3F-2Nal-THP-K(NMeAc)-N-3Pya-Sar-CON(Me)2] ({Me3N+(CH2)2O(CH2)2O(CH2)2CO}-[Pen][X20]T[Trp(7-Me)][Lys(Me)](Ac)[Pen]Y(CH2CH2OCH2CH2OCH2CH2NMe3+)[2Nal][Thp][Lys(Me)](Ac)N[3Pal][Sar]-NMe2; disulfide 1-6)	8.92	166
CC(=O)N(C)CCCC[C@@H]1NC(=O)[C@H](Cc2c[nH]c3c(C)cccc23)NC(=O)[C@H]([C@@H](C)O)NC(=O)[C@H](CC(=O)N(C)C)NC(=O)[C@@H](NC(=O)CCOCCOCC[N+](C)(C)C)C(C)(C)SSC(C)(C)[C@@H](C(=O)N[C@@H](Cc2ccc(OCCCCC[N+](C)(C)C)cc2)C(=O)N[C@@H](Cc2ccc3ccccc3c2)C(=O)NC2(C(=O)N[C@@H](CCCCN(C)C(C)=O)C(=O)N[C@@H](CC(N)=O)C(=O)N[C@@H](Cc3cccnc3)C(=O)N(C)CC(=O)NCCOCCOCC[N+](C)(C)C)CCOCC2)NC1=O [compound 220, cPEG3aCO-Pen(3)-N(N(Me)2)-T-7MeW-K(NMeAc)-Pen(3)-TMAPF-2Nal-THP-K(NMeAc)-N-3Pya-Sar-CO(NHPEG3a)] ({Me3N+(CH2)2O(CH2)2O(CH2)2CO}-[Pen]D(NMe2)T[Trp(7-Me)][Lys(Me)](Ac)[Pen]Y(X3)[2Nal][Thp][Lys(Me)](Ac)N[3Pal][Sar]-{NH(CH2CH2O)2CH2CH2NMe3+}; disulfide 1-6)	8.85	142
CC(=O)N(C)CCCC[C@@H]1NC(=O)[C@H](Cc2c[nH]c3c(C)cccc23)NC(=O)[C@H]([C@@H](C)O)NC(=O)[C@H](CC(=O)N(C)C)NC(=O)[C@@H](NC(=O)CCOCCOCC[N+](C)(C)C)C(C)(C)SSC(C)(C)[C@@H](C(=O)N[C@@H](Cc2ccc(OCCN3CC[N+](C)(C)CC3)cc2)C(=O)N[C@@H](Cc2ccc3ccccc3c2)C(=O)NC2(C(=O)N[C@@H](CCCCN(C)C(C)=O)C(=O)N[C@@H](CC(N)=O)C(=O)N[C@@H](Cc3cccnc3)C(=O)N(C)CC(=O)N(C)C)CCOCC2)NC1=O [compound 193, cPEG3aCO-Pen(3)-N(N(Me)2)-T-7MeW-K(NMeAc)-Pen(3)-4DMPzEF-2Nal-THP-K(NMeAc)-N-3Pya-Sar-CON(Me)2] ({Me3N+(CH2)2O(CH2)2O(CH2)2CO}-[Pen]D(NMe2)T[Trp(7-Me)][Lys(Me)](Ac)[Pen]Y(X37)[2Nal][Thp][Lys(Me)](Ac)N[3Pal][Sar]-NMe2; disulfide 1-6)	7.40	135
CC(=O)NCCCC[C@@H]1NC(=O)[C@H](Cc2c[nH]c3c(C)cccc23)NC(=O)[C@H]([C@@H](C)O)NC(=O)[C@H](CC(N)=O)NC(=O)[C@@H](NC(C)=O)C(C)(C)SSC(C)(C)[C@@H](C(=O)N[C@@H](Cc2ccc(OCCCCC[N+](C)(C)C)cc2)C(=O)N[C@@H](Cc2ccc3ccccc3c2)C(=O)NC2(C(=O)N[C@@H](CCC(=O)O)C(=O)N[C@@H](CC(N)=O)C(=O)N[C@@H](Cc3cccnc3)C(=O)N(C)CC(N)=O)CCOCC2)NC1=O [compound 430, MeCO-Pen(3)-N-T-7MeW-K(Ac)-Pen(3)-TMAPF-2Nal-THP-E-N-3Pya-Sar-CONH2] (Ac-[Pen]NT[Trp(7-Me)]K(Ac)[Pen]Y(X3)[2Nal][Thp]EN[3Pal][Sar]-NH2; disulfide 1-6 (inferred))	8.59	167
CC(=O)NCCCC[C@@H]1NC(=O)[C@H](Cc2c[nH]c3c(C)cccc23)NC(=O)[C@H]([C@@H](C)O)NC(=O)[C@H](CC(N)=O)NC(=O)[C@@H](NC(=O)[C@@H](CCCCNC(=O)CCCCC[N+](C)(C)C)NC(C)=O)C(C)(C)SSC(C)(C)[C@@H](C(=O)N[C@@H](Cc2ccc(OCCN)cc2)C(=O)N[C@@H](Cc2ccc3ccccc3c2)C(=O)NC2(C(=O)N[C@@H](CCCCNC(C)=O)C(=O)N[C@@H](CC(N)=O)C(=O)N[C@@H](Cc3cccnc3)C(=O)N(C)CC(N)=O)CCOCC2)NC1=O [compound 87] (Ac-[dK](Hexanoyl(6-NMe3+))[Pen]NT[Trp(7-Me)]K(Ac)[Pen][AEF][2Nal][Thp]K(Ac)N[3Pal][Sar]-NH2; disulfide 2-7 (inferred))	8.38	159

Continued, values first:

pIC50 (IL-23R)	EPSA [1] [A^2]	Compound
8.43	189	CC(=O)NCCCC[C@@H]1NC(=O)[C@H](Cc2c[nH]c3c(C)cccc23)NC(=O)[C@H]([C@@H](C)O)NC(=O)[C@H](CC(N)=O)NC(=O)[C@@H](NC(=O)COc2ccc(-c3ccc(F)cc3F)cc2C(=O)O)C(C)(C)SSC(C)(C)[C@@H](C(=O)N[C@@H](Cc2ccc(OCCCCC[N+](C)(C)C)cc2)C(=O)N[C@@H](Cc2ccc3ccccc3c2)C(=O)NC2(C(=O)N[C@@H](CCCCNC(C)=O)C(=O)N[C@@H](CC(N)=O)C(=O)N[C@@H](Cc3cccnc3)C(=O)N(C)CC(N)=O)CCOCC2)NC1=O [compound 527, DFNCO-Pen(3)-N-T-7MeW-K(Ac)-Pen(3)-TMAPF-2Nal-THP-K(Ac)-N-3Pya-Sar-CONH2]
8.59	172	CC(=O)NCCCC[C@@H]1NC(=O)[C@H](Cc2c[nH]c3c(C)cccc23)NC(=O)[C@H]([C@@H](C)O)NC(=O)[C@H](CC(N)=O)NC(=O)[C@@H](NC(C)=O)C(C)(C)SSC(C)(C)[C@@H](C(=O)N[C@@H](Cc2ccc(-n3cc(CCC[N+](C)(C)C)nn3)cc2)C(=O)N[C@@H](Cc2ccc3ccccc3c2)C(=O)NC2(C(=O)N[C@@H](CCC(=O)O)C(=O)N[C@@H](CC(N)=O)C(=O)N[C@@H](Cc3cccnc3)C(=O)N(C)CC(N)=O)CCOCC2)NC1=O [compound 458] (Ac-[Pen]NT[Trp(7-Me)]K(Ac)[Pen][X51][2Nal][Thp]EN[3Pal][Sar]-NH2; disulfide 1-6 (inferred))
6.19	153	CC(=O)N(C)CCCCC(NC(=O)C1(NC(=O)[C@H](Cc2ccc3ccccc3c2)NC(=O)[C@H](Cc2ccc(OCCOCCOCC[N+](C)(C)C)cc2)NC(=O)[C@H]2NC(=O)[C@H](CCCCN(C)C(C)=O)NC(=O)[C@H](Cc3c[nH]c4c(C)cccc34)NC(=O)[C@H]([C@@H](C)O)NC(=O)[C@H](CC(=O)N(C)C)NC(=O)[C@@H](NC(=O)CCOCCOCC[N+](C)(C)C)C(C)(C)SSC2(C)C)CCOCC1)C(=O)N[C@@H](CC(N)=O)C(=O)N[C@@H](Cc1ccccc1)C(=O)N(C)CC(=O)N(C)C (some centres unmarked) [compound 573, cPEG3aCO-Pen(3)-N(N(Me)2)-T-7MeW-K(NMeAc)-Pen(3)-APEG3F-2Nal-THP-K(NMeAc)-N-F-Sar-CON(Me)2] ({Me3N+(CH2)2O(CH2)2O(CH2)2CO}-[Pen]D(NMe2)T[Trp(7-Me)][Lys(Me)](Ac)[Pen]Y(CH2CH2OCH2CH2OCH2CH2NMe3+)[2Nal][Thp][ξLys(Me)](Ac)NF[Sar]-NMe2; disulfide 1-6)
8.68	191	CC(=O)NCCCC[C@@H]1NC(=O)[C@H](Cc2c[nH]c3c(-c4cccc(NC(C)=O)c4)cccc23)NC(=O)[C@H]([C@@H](C)O)NC(=O)[C@H](CC(N)=O)NC(=O)[C@@H](NC(=O)CCOCCOCC[N+](C)(C)C)C(C)(C)SSC(C)(C)[C@@H](C(=O)N[C@@H](Cc2ccc(OCCN)cc2)C(=O)N[C@@H](Cc2ccc3ccccc3c2)C(=O)NC2(C(=O)N[C@@H](CCC(=O)O)C(=O)N[C@@H](CC(N)=O)C(=O)N[C@@H](Cc3cccnc3)C(=O)N(C)CC(N)=O)CCOCC2)NC1=O [compound 443, cPEG3aCO-Pen(3)-N-T-7(3NAcPh)W-K(Ac)-Pen(3)-AEF-2Nal-THP-E-N-3Pya-Sar-CONH2] ({Me3N+(CH2)2O(CH2)2O(CH2)2CO}-[Pen]NT[Trp(7-(3-AcNH-Ph))]K(Ac)[Pen][AEF][2Nal][Thp]EN[3Pal][Sar]-NH2; disulfide 1-6)
8.70	171	CC(=O)NCCCC[C@@H]1NC(=O)[C@H](Cc2c[nH]c3c(C)cccc23)NC(=O)[C@H]([C@@H](C)O)NC(=O)[C@H](CC(N)=O)NC(=O)[C@@H](NC(=O)[C@@H](CCCC[N+](C)(C)C)NC(C)=O)C(C)(C)SSC(C)(C)[C@@H](C(=O)N[C@@H](Cc2ccc(OCCN)cc2)C(=O)N[C@@H](Cc2ccc3ccccc3c2)C(=O)NC2(C(=O)N[C@@H](CCCCNC(C)=O)C(=O)N[C@@H](CC(N)=O)C(=O)N[C@@H](Cc3cccnc3)C(=O)N(C)CC(N)=O)CCOCC2)NC1=O [compound 447] (Ac-[dLys(Me3)][Pen]NT[Trp(7-Me)]K(Ac)[Pen][AEF][2Nal][Thp]K(Ac)N[3Pal][Sar]-NH2; disulfide 2-7 (inferred))
